Test results taken from ChEMBL document CHEMBL3046635, “Synthesis and Herbicidal Activity of New Pyrazole-4-carboxamide Derivatives” (J Pestic Sci, 2004).
Calls of active or inactive are those of the source. Unless noted, the rule behind the calls is not given here.

Key:
Echinochloa oryzicola [1] = test: Pre-emergence herbicidal activity against Echinochloa oryzicola assessed as bleaching of stem/leaf parts; assay type: functional, organism-based
Ammannia multiflora [2] = test: Post-emergence herbicidal activity against Ammannia multiflora assessed as bleaching of stem/leaf parts; assay type: functional, organism-based; also: test concentration or dose not given here
Eleocharis acicularis [3] = test: Post-emergence herbicidal activity against Eleocharis acicularis assessed as bleaching of stem/leaf parts; assay type: functional, organism-based; also: test concentration or dose not given here
Pontederia vaginalis [4] = test: Pre-emergence herbicidal activity against Monochoria vaginalis at 500 g a.i/ha measured after 14 days; assay type: functional, organism-based
Pontederia vaginalis [5] = test: Post-emergence herbicidal activity against Monochoria vaginalis assessed as bleaching of stem/leaf parts; assay type: functional, organism-based; also: test concentration or dose not given here
Echinochloa oryzicola [6] = test: Pre-emergence herbicidal activity against Echinochloa oryzicola at 500 g a.i/ha measured after 14 days; assay type: functional, organism-based
[7] = system: Schoenoplectiella juncoides; test: Pre-emergence herbicidal activity against Schoenoplectiella juncoides at 100 g a.i/ha measured after 14 days; assay type: functional, organism-based
Ammannia multiflora [8] = test: Pre-emergence herbicidal activity against Ammannia multiflora at 500 g a.i/ha measured after 14 days; assay type: functional, organism-based
Ammannia multiflora [9] = test: Pre-emergence herbicidal activity against Ammannia multiflora assessed as bleaching of stem/leaf parts; assay type: functional, organism-based
Ammannia multiflora [10] = test: Pre-emergence herbicidal activity against Ammannia multiflora at 100 g a.i/ha measured after 14 days; assay type: functional, organism-based
Elatine triandra [11] = test: Pre-emergence herbicidal activity against Elatine triandra at 500 g a.i/ha measured after 14 days; assay type: functional, organism-based
[12] = system: Schoenoplectiella juncoides; test: Post-emergence herbicidal activity against Schoenoplectiella juncoides assessed as bleaching of stem/leaf parts; assay type: functional, organism-based; also: test concentration or dose not given here
Cyperus difformis [13] = test: Pre-emergence herbicidal activity against Cyperus difformis at 500 g a.i/ha measured after 14 days; assay type: functional, organism-based
Elatine triandra [14] = test: Pre-emergence herbicidal activity against Elatine triandra at 100 g a.i/ha measured after 14 days; assay type: functional, organism-based
[15] = system: Schoenoplectiella juncoides; test: Pre-emergence herbicidal activity against Schoenoplectiella juncoides at 500 g a.i/ha measured after 14 days; assay type: functional, organism-based
Rotala indica [16] = test: Pre-emergence herbicidal activity against Rotala indica at 100 g a.i/ha measured after 14 days; assay type: functional, organism-based
Lindernia procumbens [17] = test: Pre-emergence herbicidal activity against Lindernia procumbens at 500 g a.i/ha measured after 14 days; assay type: functional, organism-based
Cyperus difformis [18] = test: Pre-emergence herbicidal activity against Cyperus difformis assessed as bleaching of stem/leaf parts; assay type: functional, organism-based
Eleocharis acicularis [19] = test: Pre-emergence herbicidal activity against Eleocharis acicularis at 100 g a.i/ha measured after 14 days; assay type: functional, organism-based
Echinochloa oryzicola [20] = test: Post-emergence herbicidal activity against Echinochloa oryzicola assessed as bleaching of stem/leaf parts; assay type: functional, organism-based; also: test concentration or dose not given here
Pontederia vaginalis [21] = test: Pre-emergence herbicidal activity against Monochoria vaginalis at 100 g a.i/ha measured after 14 days; assay type: functional, organism-based
Oryza sativa [22] = test: Phytotoxicity against Oryza sativa cv. Koshihikari (rice) at 100 g a.i/ha measured after 14 days; assay type: organism-based; conditions: in vivo, 336 h
Eleocharis acicularis [23] = test: Pre-emergence herbicidal activity against Eleocharis acicularis assessed as bleaching of stem/leaf parts; assay type: functional, organism-based
[24] = system: Schoenoplectiella juncoides; test: Pre-emergence herbicidal activity against Schoenoplectiella juncoides assessed as bleaching of stem/leaf parts; assay type: functional, organism-based
Lindernia procumbens [25] = test: Pre-emergence herbicidal activity against Lindernia procumbens at 100 g a.i/ha measured after 14 days; assay type: functional, organism-based
Rotala indica [26] = test: Pre-emergence herbicidal activity against Rotala indica at 500 g a.i/ha measured after 14 days; assay type: functional, organism-based
Rotala indica [27] = test: Post-emergence herbicidal activity against Rotala indica assessed as bleaching of stem/leaf parts; assay type: functional, organism-based; also: test concentration or dose not given here
Lindernia procumbens [28] = test: Post-emergence herbicidal activity against Lindernia procumbens assessed as bleaching of stem/leaf parts; assay type: functional, organism-based; also: test concentration or dose not given here
Echinochloa oryzicola [29] = test: Pre-emergence herbicidal activity against Echinochloa oryzicola at 100 g a.i/ha measured after 14 days; assay type: functional, organism-based
Elatine triandra [30] = test: Pre-emergence herbicidal activity against Elatine triandra assessed as bleaching of stem/leaf parts; assay type: functional, organism-based
Pontederia vaginalis [31] = test: Pre-emergence herbicidal activity against Monochoria vaginalis assessed as bleaching of stem/leaf parts; assay type: functional, organism-based
Lindernia procumbens [32] = test: Pre-emergence herbicidal activity against Lindernia procumbens assessed as bleaching of stem/leaf parts; assay type: functional, organism-based
Cyperus difformis [33] = test: Pre-emergence herbicidal activity against Cyperus difformis at 100 g a.i/ha measured after 14 days; assay type: functional, organism-based
Rotala indica [34] = test: Pre-emergence herbicidal activity against Rotala indica assessed as bleaching of stem/leaf parts; assay type: functional, organism-based
Oryza sativa [35] = test: Phytotoxicity against Oryza sativa cv. Koshihikari (rice) at 500 g a.i/ha measured after 14 days; assay type: organism-based; conditions: in vivo, 336 h
Elatine triandra [36] = test: Post-emergence herbicidal activity against Elatine triandra assessed as bleaching of stem/leaf parts; assay type: functional, organism-based; also: test concentration or dose not given here
Cyperus difformis [37] = test: Post-emergence herbicidal activity against Cyperus difformis assessed as bleaching of stem/leaf parts; assay type: functional, organism-based; also: test concentration or dose not given here
Eleocharis acicularis [38] = test: Pre-emergence herbicidal activity against Eleocharis acicularis at 500 g a.i/ha measured after 14 days; assay type: functional, organism-based

| Compound | Activity (Echinochloa oryzicola [1]) | Activity (Ammannia multiflora [2]) | Activity (Eleocharis acicularis [3]) | Activity (Pontederia vaginalis [4]) | Activity (Pontederia vaginalis [5]) | Activity (Echinochloa oryzicola [6]) | Activity [7] | Activity (Ammannia multiflora [8]) | Activity (Ammannia multiflora [9]) | Activity (Ammannia multiflora [10]) | Activity (Elatine triandra [11]) | Activity [12] | Activity (Cyperus difformis [13]) | Activity (Elatine triandra [14]) | Activity [15] | Activity (Rotala indica [16]) | Activity (Lindernia procumbens [17]) | Activity (Cyperus difformis [18]) | Activity (Eleocharis acicularis [19]) | Activity (Echinochloa oryzicola [20]) | other results |
| --- | --- | --- | --- | --- | --- | --- | --- | --- | --- | --- | --- | --- | --- | --- | --- | --- | --- | --- | --- | --- | --- |
| Cn1cc(C(=O)NOc2ccc(Cl)cc2)c(OCc2cccc(C(F)(F)F)c2)n1 | Active | Active | Active | Active | Active | Active | Active | Active | Active | Active | Active | Active | Active | Active | Active | Active | Active | Active | Active | Active | Activity (Pontederia vaginalis [21]): Active; Activity (Oryza sativa [22]): Non-toxic; Activity (Eleocharis acicularis [23]): Active; Activity [24]: Active; Activity (Lindernia procumbens [25]): Active; Activity (Rotala indica [26]): Active; Activity (Rotala indica [27]): Active; Activity (Lindernia procumbens [28]): Active; Activity (Echinochloa oryzicola [29]): inactive; Activity (Elatine triandra [30]): Active; Activity (Pontederia vaginalis [31]): Active; Activity (Lindernia procumbens [32]): Active; Activity (Cyperus difformis [33]): Active; Activity (Rotala indica [34]): Active; Activity (Oryza sativa [35]): Non-toxic; Activity (Elatine triandra [36]): Active; Activity (Cyperus difformis [37]): Active; Activity (Eleocharis acicularis [38]): Active |
| Cn1cc(C(=O)NOc2ccccc2)c(OCc2cccc(C(F)(F)F)c2)n1 | Active | Active | Active | Active | Active | Active | inactive | Active | Active | Active | Active | Active | Active | Active | Active | Active | Active | Active | Active | Active | Activity (Pontederia vaginalis [21]): Active; Activity (Oryza sativa [22]): Non-toxic; Activity (Eleocharis acicularis [23]): Active; Activity [24]: Active; Activity (Lindernia procumbens [25]): Active; Activity (Rotala indica [26]): Active; Activity (Rotala indica [27]): Active; Activity (Lindernia procumbens [28]): Active; Activity (Echinochloa oryzicola [29]): Active; Activity (Elatine triandra [30]): Active; Activity (Pontederia vaginalis [31]): Active; Activity (Lindernia procumbens [32]): Active; Activity (Cyperus difformis [33]): Active; Activity (Rotala indica [34]): Active; Activity (Oryza sativa [35]): Non-toxic; Activity (Elatine triandra [36]): Active; Activity (Cyperus difformis [37]): Active; Activity (Eleocharis acicularis [38]): Active |
| CCCONC(=O)c1cn(C)nc1OCc1cccc(C(F)(F)F)c1 | Active | Active | Active | Active | Active | Active | Active | Active | Active | Active | Active | Active | Active | Active | Active | Active | Active | Active | Active | Active | Activity (Pontederia vaginalis [21]): Active; Activity (Oryza sativa [22]): Non-toxic; Activity (Eleocharis acicularis [23]): Active; Activity [24]: Active; Activity (Lindernia procumbens [25]): Active; Activity (Rotala indica [26]): Active; Activity (Rotala indica [27]): Active; Activity (Lindernia procumbens [28]): Active; Activity (Echinochloa oryzicola [29]): Active; Activity (Elatine triandra [30]): Active; Activity (Pontederia vaginalis [31]): Active; Activity (Lindernia procumbens [32]): Active; Activity (Cyperus difformis [33]): Active; Activity (Rotala indica [34]): Active; Activity (Oryza sativa [35]): Toxic; Activity (Elatine triandra [36]): Active; Activity (Cyperus difformis [37]): Active; Activity (Eleocharis acicularis [38]): Active |
